Measurements as given in patent US20150099003A1, “Topiramate Sustained-Release Pharmaceutical Composition, Method for Preparing Same, and Uses Thereof” (Institute of Pharmacology and Toxicology Academy of …, priority 2012, published 2015).

Experiments:
[1] = Release rate in different dissolution media (artificial gastric fluid, water, artificial intestinal fluid); type: physicochemical; conditions: degradation reaction
Description: In order to verify whether acidic, basic solvent media would influence the release rate of the sustained-release pellets of the present invention, 0.1 mol/L HCl (pH1.2) was prepared as artificial gastric fluid, […] phosphate buffer (pH6.8) was prepared as artificial intestinal fluid, and these media and water (500 ml) were used as release media, rotation speed was 100 rpm, 37° C. Samples (5 ml, supplemented with equivalent volume of media at the meantime) were taken at 1, 2, 4, 8, 12, 16, 20, 24 h, filtrated, and the subsequent filtrates were used as test solutions. High performance liquid chromatography (Appendix V D of Part II of Chinese Pharmacopoeia, 2010 Edition) was used, octylsilane-bonded silica gel was used as packing agent, 50% methanol was mobile phase, differential refractive detector was used, flow rate was 1.5 ml per minute. 200 μl of test solution was taken, injected in liquid chromatograph, the peak area of topiramate as main drug was recorded; topiramate was separately taken as control sample and measured by the same method, and accumulative release percentages of drug at different time points were calculated by external standard method.

[2] = cited from earlier work
[3] = cited from earlier work; remark: listed apart in the source
human plasma protein = conditions: plasma concentration range of 0.5-250 μg/ml; decreases with the increase of plasma concentration; cited from earlier work

For `CC1(C)O[C@@H]2[C@@H](CO[C@@]3(COS(N)(=O)=O)OC(C)(C)O[C@@H]23)O1` [Topiramate, 2,3,4,5-bis-O-(1-methylethylene)-β-D-fructopyranose sulfamate], the “Stability of topiramate in pH1.2 artificial gastric fluid” value [1] is listed as “unstable”, the “Solubility in organic solvents” value ([2]; acetone, chloroform, dimethylsulfoxide and ethanol) is listed as “freely soluble” and the “Solubility in alkaline solution” value ([2]; alkaline solution having pH of 9-10 such as sodium hydroxide or sodium phosphate solutions) is listed as “very freely soluble”. The “pH value of saturated solution” value ([2]; saturated solution) was 6.3, the Solubility in water ([2]; water, room temperature) was “about 9.8 mg/mL” and the “Solubility in water (descriptive)” value ([2]; water, room temperature) was “very slightly soluble”. The Plasma half-life ([3]; human, in vivo) was 19 to 25 h, the “Clearance for oral administration” value ([3]; oral administration) was 22 to 36 mL/min and the “Human plasma protein binding ratio” value (human plasma protein) was 15-41%.
